Test results from patent US20210290648A1, “Potentiation of B-Lactam Antibiotics and B-Lactam/B-Lactamase Inhibitor Combinations Against Multidrug and Extensively Drug-Resistant Pseudomonas Aeruginosa Using Non-Ribosomal Tobramycin-Cyclam Conjugates” (University of Manitoba, priority 2018, published 2021).

Columns and labels:
Type in all cases: cell-based, Pseudomonas aeruginosa
WT P. aeruginosa PAO1 = experiment: Checkerboard combination study / MIC
PA 100036 = experiment: Checkerboard combination study / MIC
PA 101885 = experiment: Checkerboard combination study / MIC
PA 259 = experiment: Checkerboard combination study / MIC
PA 260 = experiment: Checkerboard combination study / MIC
PA 262 = experiment: Checkerboard combination study / MIC
PA 264 = experiment: Checkerboard combination study / MIC
PA 101243 = experiment: Checkerboard combination study / MIC; details: PA 101243
PA 114228 = experiment: Checkerboard combination study / MIC
PAO200 = system: PAO200
Text: (§1) PAO200 is a tnexA-rnexB-oprM deletion strain while PAO750 lacks five important RND pumps (McxAB-OprM, MexCD-OprJ, MexEF-OprN, Mex JK, and MexXY) and the outer membrane protein OpmH (46, 47). Some of these pumps are homologues of broad substrate specificities that extrude different classes of antimicrobial agents and confer resistance on P. aeruginosa (48).
(§2) Antimicrobial Susceptibility Assay. The in vitro antimicrobial activity of all compounds/antibiotics against a panel of bacteria was evaluated by microbroth dilution method in accordance with the Clinical and Laboratory Standards Institute (CLSI) guidelines. Overnight grown bacterial cultures were diluted in saline to achieve a 0.5 McFarland turbidity, followed by 1:50 dilution in Mueller-Hinton broth (MHB) for inoculation to a final concentration of approximately 5×10^5CFU/mL. The antimicrobial agents were 2-fold serially diluted in MHB in a 96-well plate and incubated at 37° C. with equal volumes of inoculum for 18 h. The lowest concentration that prevented the visible growth of bacteria was defined as the MIC for each antimicrobial agent. The broth with or without bacterial cells was used as positive or negative control, respectively.
(§3) Checkerboard Assay. Combination studies with different antibiotics were performed in 96-well plates as previously described (22). Briefly, the antibiotic of interest was serially diluted in MHB along the abscissa while the adjuvant (newly synthesized conjugates) was serially diluted in MHB along the ordinate. This creates a 10×7 matrix wherein each well consists of a combination of different antibiotic and adjuvant concentrations. Overnight grown bacterial cultures were diluted in saline to achieve a 0.5 McFarland turbidity, followed by 1:50 dilution in Mueller-Hinton broth (MHB) for inoculation to a final concentration of approximately 5×10^5CFU/mL. Equal volume of this bacterial culture was then added to each well and incubated at 37° C. for 18 h. After incubation, the plates were read on EMax® Plus microplate reader (Molecular Devices, Sunnyvale, Calif., USA) at 590 nm. MIC was recorded as wells with the lowest concentration of drugs with no bacterial growth. The fractional inhibitory concentration (FIC) for each antibiotic was calculated by dividing the MIC of the antibiotic in the presence of adjuvant by the MIC of the antibiotic alone. Similarly, the FIC of adjuvant was calculated by dividing the MIC of the adjuvant in the presence of antibiotic by the MIC of the adjuvant alone. FIC index is the sum of both FICs. FIC indices of <0.5 were deemed synergistic; 0.5-4, no interaction; and >4, antagonistic.

PAO750 = system: PAO750
Text: as §1, §2, §3

[1] = system: MDR/XDR P. aeruginosa clinical isolates; experiment: MIC and checkerboard, panel of clinical isolates; details: antibiotic + compound 2 (8.7 μM); resistant P. aeruginosa isolates
[2] = MIC of antibiotic combined with compound 2

Compound: CCN1CCN(C(=O)N[C@@H](C(=O)N[C@@H]2C(=O)N3[C@@H]2SC(C)(C)[C@@H]3C(=O)O)c2ccccc2)C(=O)C1=O [Piperacillin]
- MIC of antibiotic + Compound 2 in PAO1 (WT P. aeruginosa PAO1; + compound 2 ≤8.7 μM, PAO1): 2 µg/mL
- fold change of MIC + Compound 2 in PAO1 (WT P. aeruginosa PAO1; + compound 2 ≤8.7 μM, PAO1): 4
- MIC (WT P. aeruginosa PAO1; Pseudomonas aeruginosa, PAO1, 18 h, antibiotic alone, WT PAO1 (Table 2), read-out: MIC alone): 8 µg/mL
- FICI in the presence of ≤10 μM of 1 (WT P. aeruginosa PAO1; antibiotic + compound 1, WT PAO1): 0.26
- MIC of Antibiotics in the presence of ≤10 μM of 1 (WT P. aeruginosa PAO1; antibiotic + compound 1 ≤10 μM, WT PAO1): 2 µg/mL
- FICI in the presence of ≤10 μM of 2 (WT P. aeruginosa PAO1; antibiotic + compound 2, WT PAO1): 0.25
- MIC of Antibiotics in the presence of ≤10 μM of 2 (WT P. aeruginosa PAO1; antibiotic + compound 2 ≤10 μM, WT PAO1): 2 µg/mL
- FICI in the presence of ≤10 μM of 3 (WT P. aeruginosa PAO1; antibiotic + compound 3, WT PAO1): 0.25
- MIC of Antibiotics in the presence of ≤10 μM of 3 (WT P. aeruginosa PAO1; antibiotic + compound 3 ≤10 μM, WT PAO1): 2 µg/mL
- MIC of antibiotic alone in PAO1 (WT P. aeruginosa PAO1; antibiotic alone, PAO1 wild-type (Table 4)): 8 µg/mL
- MICCombination (antibiotic) (PA 100036; [2]): 64 µg/mL
- FICI (PA 100036; antibiotic + compound 2): <1.06
- MICAntibiotic (PA 100036; antibiotic alone): 64 µg/mL
- FICAntibiotic (PA 100036; with compound 2): 1.000
- MICCombination (antibiotic) (PA 101885; [2]): 4 µg/mL
- FICI (PA 101885; antibiotic + compound 2): <0.31
- MICAntibiotic (PA 101885; antibiotic alone): 16 µg/mL
- FICAntibiotic (PA 101885; with compound 2): 0.250
- MICCombination (antibiotic) (PA 259; [2]): 256 µg/mL
- FICI (PA 259; antibiotic + compound 2): <0.50
- MICAntibiotic (PA 259; antibiotic alone): 512 µg/mL
- FICAntibiotic (PA 259; with compound 2): 0.500
- MICCombination (antibiotic) (PA 260; [2]): 512 µg/mL
- FICI (PA 260; antibiotic + compound 2): <1.06
- MICAntibiotic (PA 260; antibiotic alone): 512 µg/mL
- FICAntibiotic (PA 260; with compound 2): 1.000
- MICCombination (antibiotic) (PA 262; [2]): 512 µg/mL
- FICI (PA 262; antibiotic + compound 2): <0.52
- MICAntibiotic (PA 262; antibiotic alone): 1024 µg/mL
- FICAntibiotic (PA 262; with compound 2): 0.500
- MICCombination (antibiotic) (PA 264; [2]): 1024 µg/mL
- FICI (PA 264; antibiotic + compound 2): <0.52
- MICAntibiotic (PA 264; antibiotic alone): 2048 µg/mL
- FICAntibiotic (PA 264; with compound 2): 0.500
- MICCombination (antibiotic) (PA 101243; [2]): 128 µg/mL
- FICI (PA 101243; antibiotic + compound 2): <1.06
- MICAntibiotic (PA 101243; antibiotic alone): 128 µg/mL
- FICAntibiotic (PA 101243; with compound 2): 1.000
- MICCombination (antibiotic) (PA 114228; [2]): 8 µg/mL
- FICI (PA 114228; antibiotic + compound 2): <0.50
- MICAntibiotic (PA 114228; antibiotic alone): 16 µg/mL
- FICAntibiotic (PA 114228; with compound 2): 0.500
- MIC of antibiotic + Compound 2 in PAO200 (PAO200; + compound 2 ≤8.7 μM, PAO200): 1 (1) μg/ml
- fold change of MIC + Compound 2 in PAO200 (PAO200; + compound 2 ≤8.7 μM, PAO200): 1 (1)
- MIC of antibiotic alone in PAO200 (PAO200; antibiotic alone, PAO200 efflux-deficient): 1 µg/mL
- MIC of antibiotic + Compound 2 in PAO750 (PAO750; + compound 2 ≤8.7 μM, PAO750): 0.5 µg/mL
- fold change of MIC + Compound 2 in PAO750 (PAO750; + compound 2 ≤8.7 μM, PAO750): 4
- MIC of antibiotic alone in PAO750 (PAO750; antibiotic alone, PAO750 efflux-deficient): 2 µg/mL
- resistant isolates reaching CLSI clinical breakpoint [1]: zero out of six
